We go through three compounds from US20020061509A1, “Screening assay for the identification of agents which alter expression of PTH-rP” (Osteo Screen, priority 1996, published 2002).

The subject of one assay is PTH-rP promoter. The assay is described as follows: PTH-rP promoter-firefly luciferase reporter assay in stably transfected MDA-MB-231 cells (Clone 30). The note with it: concentration of 3.2 μM. Type of assay: cell-based, human. Here is the method:
To perform studies on the PTH-rP promoter in whole cells, a human breast cancer cell line, MDA-MB-23 1 (kindly provided by C. Kent Osborne, San Antonio Tex.) and a human lung cancer cell line, RWGT2, were employed. Various PTH-rP promoters, described in Wysolmerski et al., 1996, were linked with the reporter gene firefly luciferase and stably transfected into cell lines. Plasmid constructs included pGL3B-PTH-rP1.1 and pGL4B-PTHrP 4.0. RWGT2 cells and MDA-MB-231 cells were cultured in DMEM (Life Technologies, Grand Island, N.Y.) with 10% FCS (Hyclone, Logan, Utah), 0.1% penicillin/streptomycin and 0.1% nonessential amino acids (Gibco) in 37° C. atmosphere of 5% CO2 /air.
Before stable transfection of MDA-MB-231 cells with pGL3B-PTH-rP1.1, the concentration of geneticin (G418) required to kill MDA 231 cells was determined to be 500 μg/ml. […]
Sucloning consisted of diluting the geneticin resistant MDA-MB-2311 cells containing pGL3B-PTHrP1.1 to a concentration of 0.3 cells/100 μl. […] The luciferase activity was assessed by luminometer. […] Routinely, 20 μl of cell lysate was mixed with 100 μl of luciferase assay reagent (270 μM co-enzyme A, 470 μM luciferin and 530 μM ATP) and the luciferase activity was measured for 10 seconds in a Turner TD-20e luminometer. […] The protein concentration was assessed using BioRed reagents. […]
On the technique in general: Reporter assays use an easily measured gene product as a stand-in for the process of interest.

The subject of assay [1] is RWGT2 cells (human squamous cell carcinoma of the lung). In words: Hypercalcemia study: nude mice inoculated with RWGT2 cells. Type of assay: in vivo, BALB/c nude mice. Here is the method:
Compounds which are identified as regulating PTH-rP production were initially tested for their capacity to inhibit hypercalcemia in vivo by injecting tumor cells into nude mice and treating the mice with the potential inhibitory compounds. Specifically, compounds to be tested were injected into the subcutaneous tissue, intramuscularly, or intravenously into nude mice which were also inoculated with the human cancer cells which produce PTH-rP. The effects on the capacity of the tumor cells to cause hypercalcemia are then assessed over 2-4 weeks.
The tumor, designated RWGT2, is a human squamous cell carcinoma of the lung that was obtained from a hypercalcemic cancer patient (Guise et al, 1993). Metastatic tumor tissue was taken at the time of surgical repair of a pathologic fracture of the femur and implanted into athymic nude mice. The mice developed hypercalcemia, tumors, and increased serum PTH-rP concentrations. Tumor tissue from the mice was used to establish this cell line in culture. The cells produced PTH-rP in culture and reliably produced tumors and hypercalcemia when inoculated intramuscularly into the nude mice.
The RWGT2 cells are grown in culture in T75 flasks in α-minimal essential medium (αMEM, Hazelton Biologics Inc., Lenexa, Kans.) with 10% fetal calf serum and passaged twice a week. The mice are inoculated with RWGT2 cells by subcutaneous inoculation of 1×10^6 cells into the right flank of the upper leg.
All animal studies are conducted in accordance with the NIH Guide for the Care and Use of Laboratory Animals. Male BALB/c nude mice (Harlen), 4-6 weeks of age, are housed in a laminar flow isolator hood with a 12-hour-light/12-hour-dark cycle. Water, supplemented with multivitamins (Lymphomed, Melrose Park, Ill.) and autoclaved mouse chow (Ralston-Purina, St. Louis, Mo.) were provided ad libitum.
Weekly, the mice (each group n=5) are weighed and tumor diameters (long axis and mean axis width) are measured using calipers. Also whole blood samples for ionized calcium (Ca^2+) determination is obtained by retro-orbital puncture under anesthesia and measured using a Ciba Corning 634 ISE Ca^++/pH analyzer. Finally, blood samples for PTH-rP measurements is obtained by retro-orbital puncture and collected on ice, into pediatric vacutainer tubes containing ethylenediamine tetraacetate (EDTA) (Becton Dickinson, Rutherford, N.J.) and aprotinin (Sigma Chemical Company, St. Louis, Mo.), 400KIU/ml and stored at −70° C. Immunoreactive PTH-rP is measured using a 2 site IRMA kit available from Nichols Institute (San Juan Capistrano, Calif.).
For all experiments compound is administered when hypercalcemia is evident (treatment phase) or from the time of inoculation of RWGT2 cells (prevention phase).

Assay [2] relates to MDA-MB-231 cells (human breast cell carcinoma). In words: Osteolytic bone metastases study: nude mice inoculated with MDA-MB-231 cells into the left ventricle. It counts as in vivo, BALB/c nude mice. The note with it: 50 mg/kg/day; vs vehicle alone. Here is the method: Compounds which are identified as regulating PTH-rP production were initially tested for their capacity to inhibit bone metastases in vivo by injecting tumor cells into nude mice and treating the mice with the potential inhibitory compounds. Specifically, compounds to be tested were injected into the subcutaneous tissue, intramuscularly, or intravenously into nude mice which were also inoculated with the human cancer cells which produce PTH-rP. The effects on the capacity of the tumor cells to cause osteolytic bone lesions are then assessed over 2-4 weeks.
The tumor, named MDA-MB-231, is a human breast cell carcinoma. […]
Weekly, the mice are weighed and whole blood samples for ionized calcium (Ca^2+) determination are obtained by retro-orbital puncture under anesthesia and measured using a Ciba Coming 634 ISE Ca^++/pH analyzer.
The number of osteolytic bone metastases is determined on radiographs as described by Nakai (1992). […] The area of osteolytic bone metastases is calculated using a computerized image analysis system in which examination of osteolytic lesions from radiographs is achieved using a fluorescent light box (Kaiser, Germany) and Macro TV Zoom lens 18-108 mm f2,5 (Olympus, Japan) attached to a color video camera (Model DXC- 1 51 Sony, Japan). […] Quantitation of lesion area is performed using image analysis software (Java, Jandel Video Analysis, Jandel Scientific, Calif.). […]

[3] abbreviates: 50 mg/kg/day, administered from day 0 (prevention phase), vs vehicle alone.

Each structure is given as a SMILES string.

In the case of `C[n+]1c2cc(N)ccc2cc2ccc(N)cc21.[Cl-]` [MS 01500618, acriflavinium hydrochloride], the “stimulation of the PTH-rP promoter assay” value in the assay on PTH-rP promoter was “about 8 fold”.
As to `C(=NNc1nnn[nH]1)c1ccccc1` [OSW3, 5-benzylidene hydrazino-1,2,34-tetrazole], in assay [1] (setting [3]), the PTH-rP concentrations result was “able to lower” and the “whole blood calcium concentrations” value is “able to lower whole blood calcium concentrations”. In addition, in assay [1] (50 mg/kg/day, after hypercalcemia is evident (treatment phase), vs vehicle alone), the “whole blood calcium concentrations” value was “able to lower whole blood calcium concentrations”. In assay [2], the “lesion area of osteolytic metastases” value is reported as “able to significantly lower” and the “lesion number of osteolytic metastases” value was “able to significantly lower”.
Regarding `Nc1nc2nc[nH]c2c(=S)[nH]1` [OSW6, 6-thioguanine], the “whole blood calcium concentrations” value was “able to significantly lower whole blood calcium concentrations” in assay [1] (10 mg/kg/day, administered from day 0 (prevention phase), vs vehicle alone) and “able to lower whole blood calcium concentrations” in assay [1] (10 mg/kg/day, after hypercalcemia is evident (treatment phase), vs vehicle alone). Besides, in assay [1] (hypercalcemic mice treated (treatment phase)), the “size of the tumor” value was “reduced”.
